Source: US12391737B2, “Soluble NPY2 receptor agonists” (Boehringer Ingelheim International GmbH, priority 2020, dated 2025)
pKi: −log10 of the molar value. *1 amine or outer side, *2 acyl side, *3 side chain or, on linkers, in order; H or OH if unused. Where a SMILES comes first, the peptide text is derived from it. Side-chain parts run from the residue outwards. The star is where a group is joined. C18 diacid = O=C(O)CCCCCCCCCCCCCCCCC(=O)*; γGlu = O=C(O)[C@H](CCC(=O)[*:2])N[*:1]; Isovaleryl = CC(C)CC(=O)*; Ahx = NCCCCCC(=O)O

Legend:
[1] = molecular target: T1, Human Neuropeptide Y2 Receptor (Homo sapiens, UniProt P49146); experiment: Radioligand binding competition assay (RLB); conditions: Table 3, 125I-PYY(1-36) competition; read-out: Ki
T1 construct: purchased CHEMICON HTS066M
T1 sequence (P49146 1-381): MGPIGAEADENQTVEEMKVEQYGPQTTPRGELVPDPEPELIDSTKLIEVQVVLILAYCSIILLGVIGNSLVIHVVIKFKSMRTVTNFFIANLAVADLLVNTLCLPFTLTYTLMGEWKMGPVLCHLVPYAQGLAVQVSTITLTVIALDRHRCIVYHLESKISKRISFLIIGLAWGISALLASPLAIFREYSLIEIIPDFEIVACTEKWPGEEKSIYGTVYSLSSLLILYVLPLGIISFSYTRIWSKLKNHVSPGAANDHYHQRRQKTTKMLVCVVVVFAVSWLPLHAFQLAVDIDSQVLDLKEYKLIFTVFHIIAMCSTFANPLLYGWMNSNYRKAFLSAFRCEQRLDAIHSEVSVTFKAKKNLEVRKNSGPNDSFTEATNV
Method: The filtration RLB assay was carried out in 96-well plates in a final volume of 100 μl per well. Freeze-dried test peptides were dissolved in 100% dimethyl sulfoxide (DMSO) to stock solutions of 1 mM and serial dilutions were performed in assay buffer (50 mM HEPES, 5 mM MgCl2, 1 mM CaCl2, pH 7.4) containing 0.2% ovalbumin. […] Next, 80 μL membranes (HTS066M, ChemiSCREEN™ Human Neuropeptide Y2 Receptor Membrane Preparation, CHEMICON) were added to each well to give a final protein concentration of 0.5 μg/well. The plates were sealed and incubated at room temperature for 2 hours in a plate shaker set at 400 rpm. The incubation was stopped by vacuum filtration onto 0.5% polyethylene amine (PE) presoaked GF/C filters using a 96-well FilterMate™ harvester (Perkin Elmer) followed by four washes with 300 μl/well ice-cold wash buffer (50 mM HEPES, 500 mM NaCl, pH7.4). Filter plates were then dried for 60 min at room temperature and the bottom of the plates was sealed with backing tape UniFilter-96. Finally, 50 μl/well scintillation counter cocktail (Microscint20, Packard) was added and the radioactivity was counted in the Packard TopCount NXT scintillation counter. IC50 values (the half maximal inhibitory concentration of the agonist) were calculated by nonlinear regression analysis of sigmoidal dose-response curves.

Solubility determination = conditions: for Sol6: pH 6; for Sol7: pH 7
Summary of the method: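 Shake-flask style: 10 mg/ml peptide (TFA salt), 0.1 M sodium diphosphate pH 6.4/7.0, 600 rpm, 2 h, RT; filter; dilute 1 mg/ml in 50% MeCN; RP-UPLC, 0–100% B over 2 min, 50 °C. Solubility = sample/control area ratio. Final pH recorded.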

SMILES	pKi [1]	Sol6 (Solubility determination) [mg/mL]	Sol7 (Solubility determination) [mg/mL]
CC(C)CC(=O)N[C@@H](C)C(=O)N1CCC[C@H]1C(=O)N[C@@H](CCC(=O)O)C(=O)N[C@@H](CCCCNC(=O)CCCCCNC(=O)CC[C@H](NC(=O)CCCCCCCCCCCCCCCCC(=O)O)C(=O)O)C(=O)N1CCC[C@H]1C(=O)N[C@@H](CCC(=O)O)C(=O)N[C@@H](CCC(=O)O)C(=O)N[C@@H](CC(=O)O)C(=O)N[C@@H](C)C(=O)N[C@@H](CCC(=O)O)C(=O)N1CCC[C@H]1C(=O)N[C@@H](CCC(=O)O)C(=O)N[C@@H](CCC(=O)O)C(=O)N[C@H](C(=O)N[C@@H](CCC(N)=O)C(=O)N[C@@H](CCCNC(=N)N)C(=O)N[C@@H](Cc1ccc(O)cc1)C(=O)N[C@@H](Cc1ccc(O)cc1)C(=O)N[C@H](C(=O)N[C@@H](CO)C(=O)N[C@@H](CC(C)C)C(=O)N[C@@H](CCCNC(=N)N)C(=O)N[C@@H](Cc1c[nH]cn1)C(=O)N[C@@H](Cc1ccc(O)cc1)C(=O)N[C@@H](Cc1ccc(O)cc1)C(=O)N[C@@H](CC(N)=O)C(=O)N[C@@H](Cc1c[nH]c2ccccc12)C(=O)N[C@@H](CC(C)C)C(=O)N[C@H](C(=O)N[C@@H](CCCNC(=N)N)C(=O)N[C@@H](CCC(N)=O)C(=O)N[C@@H](CCCNC(=N)N)C(=O)N[C@@H](Cc1ccc(O)cc1)C(N)=O)[C@@H](C)O)C(C)C)[C@@H](C)O [Compound 107, N{alpha-4}-(3-methylbutanoyl)-N{epsilon-7}-(6-[(4S)-4-carboxy-4-(17-carboxyheptadecanamido)butanamido]hexanoyl)-[4A,7K,9E,13E,17T,18Q,22V,28Y,30W,31L]-hPYY(4-36)]	8.29	11.0	11.0
CC[C@H](C)[C@H](NC(=O)[C@H](CCC(=O)O)NC(=O)[C@H](CCC(=O)O)NC(=O)[C@@H]1CCCN1C(=O)[C@H](CO)NC(=O)[C@H](C)NC(=O)[C@H](CC(=O)O)NC(=O)[C@H](C)NC(=O)[C@@H]1CCCN1C(=O)[C@@H]1CCCN1C(=O)[C@H](CCCCNC(=O)CCCCCNC(=O)CC[C@H](NC(=O)CCCCCCCCCCCCCCCCC(=O)O)C(=O)O)NC(=O)[C@H](CCC(=O)O)NC(=O)[C@@H]1CCCN1C(=O)[C@H](C)NC(=O)CC(C)C)C(=O)N[C@@H](CCC(N)=O)C(=O)N[C@@H](CCCNC(=N)N)C(=O)N[C@@H](Cc1ccc(O)cc1)C(=O)N[C@@H](Cc1ccc(O)cc1)C(=O)N[C@H](C(=O)N[C@@H](CO)C(=O)N[C@@H](CC(C)C)C(=O)N[C@@H](CCCNC(=N)N)C(=O)N[C@@H](Cc1c[nH]cn1)C(=O)N[C@@H](Cc1ccc(O)cc1)C(=O)N[C@@H](Cc1ccc(O)cc1)C(=O)N[C@@H](CC(N)=O)C(=O)N[C@@H](Cc1c[nH]c2ccccc12)C(=O)N[C@@H](CC(C)C)C(=O)N[C@H](C(=O)N[C@@H](CCCNC(=N)N)C(=O)N[C@@H](CCC(N)=O)C(=O)N[C@@H](CCCNC(=N)N)C(=O)N[C@@H](Cc1ccc(O)cc1)C(N)=O)[C@@H](C)O)C(C)C [Compound 61, N{alpha-4}-(3-methylbutanoyl)-N{epsilon-7}-(6-[(4S)-4-carboxy-4-(17-carboxyheptadecanamido)butanamido]hexanoyl)-[4A,7K,9P,10A,17I,18Q,22V,28Y,30W,31L]-hPYY(4-36)]	9.39	0.1	8.9
CC(C)CC(=O)N[C@@H](C)C(=O)N1CCC[C@H]1C(=O)N[C@@H](CCC(=O)O)C(=O)N[C@@H](CCCCNC(=O)CCCCCNC(=O)CC[C@H](NC(=O)CCCCCCCCCCCCCCCCC(=O)O)C(=O)O)C(=O)N1CCC[C@H]1C(=O)N[C@@H](CCC(=O)O)C(=O)N[C@@H](C)C(=O)N1CCC[C@H]1C(=O)N[C@@H](C)C(=O)N[C@@H](CO)C(=O)N1CCC[C@H]1C(=O)N[C@@H](CCC(=O)O)C(=O)N[C@@H](CCC(=O)O)C(=O)N[C@@H](CC(C)C)C(=O)N[C@@H](CCC(N)=O)C(=O)N[C@@H](CCCNC(=N)N)C(=O)N[C@@H](Cc1ccc(O)cc1)C(=O)N[C@@H](Cc1ccc(O)cc1)C(=O)N[C@H](C(=O)N[C@@H](CO)C(=O)N[C@@H](CC(C)C)C(=O)N[C@@H](CCCNC(=N)N)C(=O)N[C@@H](Cc1c[nH]cn1)C(=O)N[C@@H](Cc1ccc(O)cc1)C(=O)N[C@@H](Cc1ccc(O)cc1)C(=O)N[C@@H](CC(N)=O)C(=O)N[C@@H](Cc1c[nH]c2ccccc12)C(=O)N[C@@H](CC(C)C)C(=O)N[C@H](C(=O)N[C@@H](CCCNC(=N)N)C(=O)N[C@@H](CCC(N)=O)C(=O)N[C@@H](CCCNC(=N)N)C(=O)N[C@@H](Cc1ccc(O)cc1)C(N)=O)[C@@H](C)O)C(C)C [Compound 192, N{alpha-4}-(3-methylbutanoyl)-N{epsilon-7}-(6-[(4S)-4-carboxy-4-(17-carboxyheptadecanamido)butanamido]hexanoyl)-[4A,7K,9E,10A,11P,18Q,22V,28Y,30W,31L]-hPYY(4-36)] (Isovaleryl-APEK([Ahx-γGlu-C18 diacid])PEAPASPEELQRYYVSLRHYYNWLTRQRY-NH2)	9.13	0.0	9.0
CC(C)CC(=O)N[C@@H](C)C(=O)N1CCC[C@H]1C(=O)N[C@@H](CCC(=O)O)C(=O)N[C@@H](CCCCNC(=O)CCCCCNC(=O)CC[C@H](NC(=O)CCCCCCCCCCCCCCCCC(=O)O)C(=O)O)C(=O)N1CCC[C@H]1C(=O)N[C@@H](CCC(=O)O)C(=O)N[C@@H](CCC(=O)O)C(=O)N[C@@H](CC(=O)O)C(=O)N[C@@H](CO)C(=O)N[C@H](C(=O)N1CCC[C@H]1C(=O)N[C@@H](CCC(=O)O)C(=O)N[C@@H](CCC(=O)O)C(=O)N[C@@H](CC(C)C)C(=O)N[C@@H](CCC(N)=O)C(=O)N[C@@H](CCCNC(=N)N)C(=O)N[C@@H](Cc1ccc(O)cc1)C(=O)N[C@@H](Cc1ccc(O)cc1)C(=O)N[C@H](C(=O)N[C@@H](CO)C(=O)N[C@@H](CC(C)C)C(=O)N[C@@H](CCCNC(=N)N)C(=O)N[C@@H](Cc1c[nH]cn1)C(=O)N[C@@H](Cc1ccc(O)cc1)C(=O)N[C@@H](Cc1ccc(O)cc1)C(=O)N[C@@H](CC(N)=O)C(=O)N[C@@H](Cc1c[nH]c2ccccc12)C(=O)N[C@@H](CC(C)C)C(=O)N[C@H](C(=O)N[C@@H](CCCNC(=N)N)C(=O)N[C@@H](CCC(N)=O)C(=O)N[C@@H](CCCNC(=N)N)C(=O)N[C@@H](Cc1ccc(O)cc1)C(N)=O)[C@@H](C)O)C(C)C)[C@@H](C)O [Compound 143, N{alpha-4}-(3-methylbutanoyl)-N{epsilon-7}-(6-[(4S)-4-carboxy-4-(17-carboxyheptadecanamido)butanamido]hexanoyl)-[4A,7K,9E,12S,13T,18Q,22V,28Y,30W,31L]-hPYY(4-36)]	8.47	10.0	>10.0
CC(C)CC(=O)N[C@@H](C)C(=O)N1CCC[C@H]1C(=O)N[C@@H](CCC(=O)O)C(=O)N[C@@H](CCCCNC(=O)CCCCCNC(=O)CC[C@H](NC(=O)CCCCCCCCCCCCCCCCC(=O)O)C(=O)O)C(=O)N1CCC[C@H]1C(=O)N[C@@H](CCC(=O)O)C(=O)N[C@@H](CCC(=O)O)C(=O)N[C@@H](CC(=O)O)C(=O)N[C@@H](CC(C)C)C(=O)N[C@H](C(=O)N1CCC[C@H]1C(=O)N[C@@H](CCC(=O)O)C(=O)N[C@@H](CCC(=O)O)C(=O)N[C@@H](CC(C)C)C(=O)N[C@@H](CCC(N)=O)C(=O)N[C@@H](CCCNC(=N)N)C(=O)N[C@@H](Cc1ccc(O)cc1)C(=O)N[C@@H](Cc1ccc(O)cc1)C(=O)N[C@H](C(=O)N[C@@H](CO)C(=O)N[C@@H](CC(C)C)C(=O)N[C@@H](CCCNC(=N)N)C(=O)N[C@@H](Cc1c[nH]cn1)C(=O)N[C@@H](Cc1ccc(O)cc1)C(=O)N[C@@H](Cc1ccc(O)cc1)C(=O)N[C@@H](CC(N)=O)C(=O)N[C@@H](Cc1c[nH]c2ccccc12)C(=O)N[C@@H](CC(C)C)C(=O)N[C@H](C(=O)N[C@@H](CCCNC(=N)N)C(=O)N[C@@H](CCC(N)=O)C(=O)N[C@@H](CCCNC(=N)N)C(=O)N[C@@H](Cc1ccc(O)cc1)C(N)=O)[C@@H](C)O)C(C)C)[C@@H](C)O [Compound 109, N{alpha-4}-(3-methylbutanoyl)-N{epsilon-7}-(6-[(4S)-4-carboxy-4-(17-carboxyheptadecanamido)butanamido]hexanoyl)-[4A,7K,9E,12L,13T,18Q,22V,28Y,30W,31L]-hPYY(4-36)]	7.85	10.0	8.5
